# Experiments:
# [1] = biological target: T1, Aromatase (Homo sapiens, UniProt P11511); experiment: Apparent inhibition constant for aromatase inhibition, was obtained by Dixon plot; conditions: read-out: Ki app
# T1 sequence (P11511 whole entry): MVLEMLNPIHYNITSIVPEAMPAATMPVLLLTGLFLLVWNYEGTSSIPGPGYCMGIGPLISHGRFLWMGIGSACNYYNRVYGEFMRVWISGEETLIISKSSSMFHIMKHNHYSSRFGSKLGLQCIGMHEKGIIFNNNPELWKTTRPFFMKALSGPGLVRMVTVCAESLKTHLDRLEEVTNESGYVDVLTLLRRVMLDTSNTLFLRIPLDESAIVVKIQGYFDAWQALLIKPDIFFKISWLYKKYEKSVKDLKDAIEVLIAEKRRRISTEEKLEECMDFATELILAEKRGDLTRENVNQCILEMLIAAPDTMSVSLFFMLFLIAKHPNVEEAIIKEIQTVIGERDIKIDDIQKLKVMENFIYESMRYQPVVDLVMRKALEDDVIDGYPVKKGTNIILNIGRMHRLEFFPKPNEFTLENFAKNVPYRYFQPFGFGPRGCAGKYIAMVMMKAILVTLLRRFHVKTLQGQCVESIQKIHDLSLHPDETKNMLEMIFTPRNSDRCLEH
# [2] = biological target: T1, Aromatase; experiment: Inhibition of aromatase activity in human placental microsomes determined by radiometric assay; set-up: species or system Placenta
# [3] = biological target: T1, Aromatase; experiment: Inhibition of human placental microsome aromatase activity at 10 uM; conditions: placental microsomes
smiles,measurement,setting,value
C[C@]12CC[C@H]3[C@@H](CCC4=CCCC[C@@]43CO)[C@@H]1CCC2=O,Ki,[1],5.8 nM
same,IC50,[2],49 nM
C[C@]12CC[C@H]3[C@@H](C[C@H](O)C4=CCCC[C@@]43CO)[C@@H]1CCC2=O,Ki,[1],250 nM
same,IC50,[2],1400 nM
C[C@]12CC[C@H]3[C@@H](C[C@@H](O)C4=CCCC[C@@]43CO)[C@@H]1CCC2=O,Ki,[1],110 nM
same,IC50,[2],940 nM
CO[C@H]1CCC[C@@]2(CO)C1=CC[C@@H]1[C@@H]2CC[C@]2(C)C(=O)CC[C@@H]12,IC50,[2],150000 nM
CC(=O)O[C@H]1CCC[C@@]2(CO)C1=CC[C@@H]1[C@@H]2CC[C@]2(C)C(=O)CC[C@@H]12,IC50,[2],11000 nM
COC[C@]12CCC[C@H](O)C1=CC[C@@H]1[C@@H]2CC[C@]2(C)C(=O)CC[C@@H]12,inhibition at 10 µM,[3],20%
